For one experiment, the system named is FoxO1A. The experiment can be described thus: Insulin-dependent phosphorylation of FoxO1A in HepG2 cells. In kind it is cell-based, human. The settings on record: HepG2 cells, 5, 10, 15 μM compound, 100 nM insulin; based upon concentration.
Experiment [1] deals with Drosophila eukaryotic initiation factor 4E binding protein (d4EBP, Thor). The experiment can be described thus: Transcription rate of insulin target gene d4EBP in insulin-treated Drosophila S2 cells (real-time PCR). In kind it is cell-based. The settings on record: 100 μM compound, 10 μg/ml human insulin, insulin alone less than 35%. How it is done: Drosophila Schneider 2 (S2) cells were cultivated in Schneider's Medium (PAN company) with 10% heat-inactivated fetal calf serum (FCS). 2×10^6 cells were drawn into 35 mm vessels at 25° C. to 80% confluence, washed one time in phosphate buffered saline solution (1×PBS, Gibco), and transferred for twelve hours to Schneider's Medium, without FCS. The cells were then preincubated for two hours with 0.5% DMSO containing Schneider's Medium, without FCS, with or without the compound according to formula (9) or formula (25), with the final concentrations of the compounds according to formulas (9) and (25) being 1 μM, 10 μM and 100 μM. This was followed by a four-hour stimulation with 10 μg/ml human insulin (Sigma).
After washing the cells two times with PBS, total RNA was then isolated from the cells using the NucleoSpin RNA II Kit (Macherey & Nagel), according to the manufacturer's instructions. The first strain cDNA synthesis was performed with every 500 ng RNA, using the QuantiTect Reverse Transcription Kit (Qiagen), according to the manufacturer's instructions. […]
The activity of the insulin signaling pathway was determined from the transcription rate of the insulin target gene Drosophila eukaryotic initiation factor 4E binding protein (d4EBP, Thor). […]

A further experiment deals with 1nR (insulin receptor). Nature of the experiment: Expression of insulin-repressed gene 1nR (insulin receptor) in fed Drosophila larvae (real-time PCR). The experiment is classed as in vivo. The settings on record: 10 mg compound per 1 g brewer's yeast, 3 days. How it is done: Three groups of 100 Drosophila larvae received 10 mg of the compound according to formula (9) mixed with 1 g autoclaved and pulverized brewer's yeast (Brewferm), while three control groups of 100 animals each received the uncut brewer's yeast. This food was administered on water-impregnated filters (Macherey-Nagel) for 3 days at 25° C.
In each case, more than 10 animals of the group were washed thoroughly with water, placed in lysate buffer (NucleoSpin RNA II kit, Macherey & Nagel), and homogenized for 1 minute at maximum speed (Ultra-Turrax T25basic). Total RNA was isolated using the NucleoSpin RNA II Kit (Macherey & Nagel, including DNase I-treatment on the column).
cDNA was produced from each 500 ng total RNA using the QuantiTect Reverse Transcription Kit (Qiagen), according to the manufacturer's instructions, including DNase I treatment. PCR was performed in batches with a total volume of 25 μl (iQ5 Real Time PCR Detection System, BioRad). The batches contained 1 μl of the cDNA batch, in each case 200 nM and 3′- and 5′-primer (Metabion) 12.5 μl 2×iQ5 SYBR Green Supermix (BioRad).
The PCR program that was used comprised 40 cycles with the following steps: 15 seconds denaturing at 95° C., 30 seconds annealing at 59° C. and 30 seconds extension at 72° C. Evaluation was carried out using the iQ5 Optical System software (Version 1.1.1442.OCR, BioRad). […]
In general terms: Real-time PCR tracks product formation cycle by cycle.

Each structure is given as a SMILES string.

For the molecule `COc1nc(-c2ccc3c(c2)OCO3)n(-c2ccc(NC(=O)CSc3ccccc3)cc2)n1` [Compound (9)], the “insulin-dependent phosphorylation of FoxO1A” value in the experiment on FoxO1A is given as “inhibited”. In addition, the “transcription rate of d4EBP as % of that of the untreated control groups” value in experiment [1] is “more than 85%”. The “expression of insulin-repressed gene 1nR (insulin receptor)” value in the experiment with 1nR (insulin receptor) was “more than double”.
